The structures appear in SMILES notation.

For one experiment, the system named is P. falciparum Dd2. The experiment in a line: Activity against the Dd2 strain of P. falciparum (SYBR Green I, 72 h). Type of experiment: cell-based. As to conditions: P. falciparum Dd2, 72 h incubation. The procedure: The Dd2 strain of P. falciparum was cultured in complete medium (RPMI with L-glutamine, 4.3% heat-inactivated O-positive human serum, 2.08 mg/ml albumax, 0.013 mg/ml hypoxanthine, 1.17 mg/ml glucose, 0.18% NaHCO3, 0.031 M Hepes, 2.60 mM NaOH, and 0.043 mg/ml gentamicin) until the parasitemia reached 3-8%. Parasitemia was determined by checking at least 500 red blood cells from a Giemsa-stained blood smear. The Dd2 cultures along with tested O-positive red blood cells were centrifuged at room temperature at 2,000 rpm for 5 minutes using an Eppendorf centrifuge 5810R with an A-4-81 rotor. The medium was aspirated off. For the compound screening, a parasite dilution at a 1% parasitemia and 1.0% hematocrit was created with screening medium (RPMI with L-glutamine, 4.16 mg/ml albumax II, 0.013 mg/ml hypoxanthine, 1.73 mg/ml glucose, 0.18% NaHCO3, 0.031 M Hepes, 2.60 mM NaOH, and 0.043 mg/ml gentamicin). The suspension was gassed with 93% nitrogen, 4% carbon dioxide, and 3% oxygen and placed at 37° C. until needed. Using a liquid dispenser, 20 μl of screening medium was dispensed into 384-well, black, clear-bottom plates. With a PinTool, 100 nl of compounds dissolved in DMSO was transferred into the assay plates along with control compound (mefloquine). Next, 30 μl of the parasite suspension in screening medium was then dispensed into the assay plates such that the final parasitemia was 1% and the final hematocrit was 1.0%. Final concentration of DMSO was 0.125%. Mefloquine at a final concentration of 20 μM and DMSO at a final concentration of 0.125% were used within the assay plates to serve as background and baseline controls, respectively. The assay plates were transferred to incubators (93% nitrogen, 4% carbon dioxide, and 3% oxygen during the 72 h incubation at 37° C.). Ten microliters of detection reagent consisting of 10×SYBR Green I (Invitrogen; supplied in 10,000× concentration) in lysis buffer (20 mM Tris-HCl, 5 mM EDTA, 0.16% Saponin wt/vol, 1.6% Triton X vol/vol) was dispensed into the assay plates. For optimal staining, the assay plates were left at room temperature for 24 h in the dark. The assay plates were read by using an Envision (PerkinElmer) reader, with 505 dichroic mirrors with 485-nm excitation and 530-nm emission settings, and the plate reads were from the bottom.
By following the above-described protocol, the 50% effective concentration (EC50) for compounds 1-95 was measured against P. falciparum Dd2 and the results are shown in Table 2: […]
`O=C(Nc1ccc(F)cc1)N1CCCCN2[C@H](CO)[C@H](c3ccc(C#Cc4ccccc4)cc3)[C@@H]2C1` [Compound 11, (8R,9R,10S)-N-(4-fluorophenyl)-10-(hydroxymethyl)-9-(4-(phenylethynyl)phenyl)-1,6-diazabicyclo[6.2.0] decane-6-carboxamide] had an EC50 of 17 nM. This counts as double-digit nanomolar.

Still in this experiment, the particulars now being: Plasmodium falciparum, DD2, 72 h, P. falciparum Dd2, 72 h incubation.
The molecule `COc1cccc(CN2CCCCN3[C@H](CO)[C@@H](c4ccc(C#Cc5cccnc5)cc4)[C@@H]3C2)c1` [Compound 1, ((8R,9S,10S)-6-(3-methoxybenzyl)-9-(4-(pyridin-3-ylethynyl)phenyl)-1,6-diazabicyclo[6.2.0]decan-10-yl)methanol] had an EC50 of 427 nM.

`O=C(Nc1ccccc1)N1CCCCN2[C@H](CO)[C@H](c3ccc(C#Cc4cccnc4)cc3)[C@@H]2C1` [Compound 2, (8R,9R,10S)-10-(hydroxymethyl)-N-phenyl-9-(4-(pyridin-3-ylethynyl)phenyl)-1,6-diazabicyclo[6.2.0] decane-6-carboxamide] had an EC50 of 165 nM.

With `COc1ccccc1NC(=O)N1CCCCN2[C@H](CO)[C@H](c3ccc(C#Cc4ccccc4)cc3)[C@@H]2C1` [Compound 3, (8R,9R,10S)-10-(hydroxymethyl)-N-(2-methoxyphenyl)-9-(4-(phenylethynyl)phenyl)-1,6-diazabicyclo[6.2.0] decane-6-carboxamide], a half-maximal effect (EC50) was put at 118 nM.

The molecule `COc1ccc(NC(=O)N2CCCCN3[C@H](CO)[C@H](c4ccc(C#Cc5ccccn5)cc4)[C@@H]3C2)cc1` [Compound 4, (8R,9R,10S)-10-(hydroxymethyl)-N-(4-methoxyphenyl)-9-(4-(pyridin-2-ylethynyl)phenyl)-1,6-diazabicyclo[6.2.0] decane-6-carboxamide] gave an EC50 of 131 nM. This EC50 and that of the molecule before are within 1.5-fold of each other.

In the case of `O=S(=O)(c1ccc(F)cc1)N1CCCCN2[C@@H](CO)[C@@H](c3ccc(C4=CCCCC4)cc3)[C@@H]2C1` [Compound 5, ((8R,9S,10R)-6-((4-fluorophenyl)sulfonyl)-9-(2′,3′,4′,5′-tetrahydro-[1,1′-biphenyl]-4-yl)-1,6-diazabicyclo[6.2.0]decan-10-yl)methanol], a half-maximal response (EC50) required 1070 nM.

The molecule `O=C(Nc1ccccc1)N1CCCCN2[C@@H](CO)[C@H](c3ccc(C#Cc4cccnc4)cc3)[C@@H]2C1` [Compound 6, (8R,9R,10R)-10-(hydroxymethyl)-N-phenyl-9-(4-(pyridin-3-ylethynyl)phenyl)-1,6-diazabicyclo[6.2.0] decane-6-carboxamide] had an EC50 of 552 nM.

With `Cc1cccc(-c2ccc([C@H]3[C@H]4CN(S(=O)(=O)c5cccc(C)c5)CCCCN4[C@H]3CO)cc2)c1` [Compound 7, ((8S,9S,10R)-9-(3′-methyl-[1,1′-biphenyl]-4-yl)-6-(m-tolylsulfonyl)-1,6-diazabicyclo[6.2.0]decan-10-yl)methanol], a half-maximal effect (EC50) was put at 1190 nM.

Molecule `COc1ccc(C#Cc2ccc([C@@H]3[C@@H](CO)N4CCCCN(C(=O)Nc5cccc(F)c5)C[C@H]34)cc2)cc1` [Compound 8, (8S,9S,10S)-N-(3-fluorophenyl)-10-(hydroxymethyl)-9-(4-((4-methoxyphenyl)ethynyl)phenyl)-1,6-diazabicyclo[6.2.0] decane-6-carboxamide] showed an EC50 of 83 nM.

`OC[C@H]1[C@@H](c2ccc(-c3ccc(F)cc3)cc2)[C@@H]2CN(CCC(F)(F)F)CCCCN12` [Compound 9, ((8R,9S,10R)-9-(4′-fluoro-[1,1′-biphenyl]-4-yl)-6-(3,3,3-trifluoropropyl)-1,6-diazabicyclo[6.2.0]decan-10-yl)methanol] registered an EC50 of 518 nM. This EC50 is about 6.2-fold higher than that of the molecule before.

In the case of `O=C(Nc1ccccc1F)N1CCCCN2[C@@H](CO)[C@H](c3ccc(C#Cc4cccnc4)cc3)[C@@H]2C1` [Compound 10, (8R,9R,10R)-N-(2-fluorophenyl)-10-(hydroxymethyl)-9-(4-(pyridin-3-ylethynyl)phenyl)-1,6-diazabicyclo[6.2.0] decane-6-carboxamide], a half-maximal effect (EC50) was put at 949 nM.

Molecule `O=C(Nc1ccccc1F)N1CCCCN2[C@@H](CO)[C@@H](c3ccc(C#Cc4cccnc4)cc3)[C@@H]2C1` [Compound 12] returned an EC50 of 950 nM. This EC50 and that of the molecule before are within 1.5-fold of each other.

The molecule `O=C(Nc1cccc(F)c1)N1CCCCN2[C@H](CO)[C@H](c3ccc(C#Cc4ccccc4)cc3)[C@@H]2C1` [Compound 13, (8R,9R,10S)-N-(3-fluorophenyl)-10-(hydroxymethyl)-9-(4-(phenylethynyl)phenyl)-1,6-diazabicyclo[6.2.0] decane-6-carboxamide] returned an EC50 of 44 nM.

For `COc1ccccc1NC(=O)N1CCCCN2[C@H](CO)[C@H](c3ccc(C#CC4CC4)cc3)[C@H]2C1` [Compound 14, (8S,9R,10S)-9-(4-(cyclopropylethynyl)phenyl)-10-(hydroxymethyl)-N-(2-methoxyphenyl)-1,6-diazabicyclo[6.2.0] decane-6-carboxamide], the EC50 came to 1200 nM.

Molecule `COc1ccccc1C#Cc1ccc([C@@H]2[C@@H](CO)N3CCCCN(CCC(F)(F)F)C[C@H]23)cc1` [Compound 15, ((8S,9S,10S)-9-(4-((2-methoxyphenyl)ethynyl)phenyl)-6-(3,3,3-trifluoropropyl)-1,6-diazabicyclo[6.2.0]decan-10-yl)methanol] showed an EC50 of 254 nM. Against the preceding molecule, the EC50 is about 4.7-fold lower.

As for `OC[C@H]1[C@@H](c2ccc(-c3cccc(F)c3)cc2)[C@@H]2CN(CCC(F)(F)F)CCCCN12` [Compound 16, ((8R,9S,10R)-9-(3′-fluoro-[1,1′-biphenyl]-4-yl)-6-(3,3,3-trifluoropropyl)-1,6-diazabicyclo[6.2.0]decan-10-yl)methanol], the EC50 amounted to 618 nM.

On to `COc1cccc(CN2CCCCN3[C@H](CO)[C@@H](c4ccc(C#Cc5cccnc5)cc4)[C@H]3C2)c1` [Compound 17, ((8S,9S,10S)-6-(3-methoxybenzyl)-9-(4-(pyridin-3-ylethynyl)phenyl)-1,6-diazabicyclo[6.2.0]decan-10-yl)methanol], for which the response was half-maximal at 560 nM (EC50).

In turn, `COc1ccc(C#Cc2ccc([C@@H]3[C@@H](CO)N4CCCCN(C(=O)Nc5ccccc5F)C[C@H]34)cc2)cc1` [Compound 18, (8S,9S,10S)-N-(2-fluorophenyl)-10-(hydroxymethyl)-9-(4-((4-methoxyphenyl)ethynyl)phenyl)-1,6-diazabicyclo[6.2.0] decane-6-carboxamide] registered a half-maximal effective concentration (EC50) of 800 nM.

`CC(C)CC#Cc1ccc([C@@H]2[C@H](CO)N3CCCCN(S(=O)(=O)Cc4ccccc4)C[C@@H]23)cc1` [Compound 19, ((8R,9S,10R)-6-(benzylsulfonyl)-9-(4-(4-methylpent-1-yn-1-yl)phenyl)-1,6-diazabicyclo[6.2.0]decan-10-yl)methanol] yielded a concentration giving a half-maximal response (EC50) of 805 nM. The EC50 values of the last two molecules are within 1.5-fold of each other.

The molecule `COCC#Cc1ccc([C@@H]2[C@H](CO)N3CCCCN(S(=O)(=O)c4ccc(OC)cc4)C[C@@H]23)cc1` [Compound 20, ((8R,9S,10R)-6-((4-methoxyphenyl)sulfonyl)-9-(4-(3-methoxyprop-1-yn-1-yl)phenyl)-1,6-diazabicyclo[6.2.0]decan-10-yl)methanol] yielded an EC50 of 1330 nM.

For `OC[C@@H]1[C@H](c2ccc(-c3ccccc3)cc2)[C@H]2CN(CCC(F)(F)F)CCCCN12` [Compound 21, ((8S,9R,10S)-9-([1,1′-biphenyl]-4-yl)-6-(3,3,3-trifluoropropyl)-1,6-diazabicyclo[6.2.0]decan-10-yl)methanol], the EC50 turned out to be 623 nM.

The molecule `O=C(Nc1ccccc1F)N1CCCCN2[C@H](CO)[C@H](c3ccc(C#Cc4cccnc4)cc3)[C@@H]2C1` [Compound 22, (8R,9R,10S)-N-(2-fluorophenyl)-10-(hydroxymethyl)-9-(4-(pyridin-3-ylethynyl)phenyl)-1,6-diazabicyclo[6.2.0] decane-6-carboxamide] showed an EC50 of 507 nM.

The molecule `COc1ccccc1NC(=O)N1CCCCN2[C@@H](CO)[C@H](c3ccc(C#CC4CCCC4)cc3)[C@@H]2C1` [Compound 23, (8R,9R,10R)-9-(4-(cyclopentylethynyl)phenyl)-10-(hydroxymethyl)-N-(2-methoxyphenyl)-1,6-diazabicyclo[6.2.0] decane-6-carboxamide] gave an EC50 of 386 nM.

`COc1ccc(NC(=O)N2CCCCN3[C@H](CO)[C@H](c4ccc(C#CCC(C)C)cc4)[C@@H]3C2)cc1` [Compound 24, (8R,9R,10S)-10-(hydroxymethyl)-N-(4-methoxyphenyl)-9-(4-(4-methylpent-1-yn-1-yl)phenyl)-1,6-diazabicyclo[6.2.0] decane-6-carboxamide] came in with an EC50 of 418 nM.

The values above are taken from patent US11325913B2, “Compounds and methods for the treatment of malaria” (THE BROAD INSTITUTE, INC., priority 2013, dated 2022).
